Source: ChEMBL document CHEMBL1759939, “Novel analogues of ketamine and phencyclidine as NMDA receptor antagonists” (Bioorg Med Chem Lett, 2011)

Columns and labels:
[1] = target: Glutamate NMDA receptor; GRIN1/GRIN2B (Homo sapiens, UniProt Q05586+Q13224); assay: Inhibition of human recombinant NR1/NR2B receptor expressed in U2OS assessed as change in intracellular calcium level by FLIPR assay; format: cell-based; set-up: concentration or dose not given beside the values
[2] = target: Glutamate NMDA receptor; GRIN1/GRIN2A (Homo sapiens, UniProt Q05586+Q12879); assay: Inhibition of human recombinant NR1/NR2A receptor expressed in U2OS assessed as change in intracellular calcium level by FLIPR assay; format: cell-based; set-up: concentration or dose not given beside the values

CNC1(c2ccccc2Cl)CCCN(C)C1=O (stereo not given)
Activity [1]: 80%
IC50 [1]: > 251 µM
Activity [2]: 80%
IC50 [2]: > 251 µM

c1ccc(C2(N3CCCCC3)CCCCC2)cc1 [PHENCYCLIDINE]
Activity [1]: > 100%
IC50 [1]: 1.26 µM
Activity [2]: > 100%
IC50 [2]: 0.398 µM

O=C1NCCCC1(c1ccccc1)N1CCCCC1 (stereo not given)
Activity [1]: 80%
IC50 [1]: 158 µM
Activity [2]: 80%
IC50 [2]: 25.1 µM

CNC1(c2ccc(OC)cc2Cl)CCCCC1=O (stereo not given)
Activity [1]: 80%
IC50 [1]: 20 µM
Activity [2]: 80%
IC50 [2]: 10 µM

c1ccc(C2(N3CCCCC3)CCCCC2)nc1
Activity [1]: 94%
IC50 [1]: 7.94 µM
Activity [2]: 94%
IC50 [2]: 2.51 µM

NC1(c2ccccc2Cl)CCCNC1=O (stereo not given)
Activity [1]: 80%
IC50 [1]: > 50.1 µM
Activity [2]: 80%
IC50 [2]: > 50.1 µM

CN1CCCC(c2ccccc2)(N2CCCCC2)C1=O (stereo not given)
Activity [1]: 80%
IC50 [1]: > 251 µM
Activity [2]: 80%
IC50 [2]: 3.16 µM

CCCCOc1cccc(C2(N3CCCCC3)CCCCC2)c1
Activity [1]: 94%
IC50 [1]: 20 µM
Activity [2]: 94%
IC50 [2]: 2 µM

FC(F)(F)COc1cccc(C2(N3CCCCC3)CCCCC2)c1
Activity [1]: 94%
IC50 [1]: 31.6 µM
Activity [2]: 94%
IC50 [2]: 5.01 µM

O=C1NCCC1(c1ccccc1)N1CCCCC1 (stereo not given)
Activity [1]: 80%
IC50 [1]: 63.1 µM
Activity [2]: 80%
IC50 [2]: 25.1 µM

CNC1(c2ccccc2Cl)CCCNC1=O (stereo not given)
Activity [1]: 80%
IC50 [1]: > 251 µM
Activity [2]: 80%
IC50 [2]: 39.8 µM

CCCCOc1ccc(C2(N3CCCCC3)CCCCC2)cc1
Activity [1]: 94%
IC50 [1]: > 50.1 µM
Activity [2]: 94%
IC50 [2]: > 50.1 µM

COc1ccc(C2(N3CCCCC3)CCCCC2)cc1
Activity [1]: 94%
IC50 [1]: 15.8 µM
Activity [2]: 94%
IC50 [2]: 3.98 µM

CNC1(c2ccccc2Cl)CCCCC1=O (stereo not given) [KETAMINE]
Activity [1]: > 100%
IC50 [1]: 5.01 µM
Activity [2]: > 100%
IC50 [2]: 1.26 µM

CN1CCC(c2ccccc2)(N2CCCCC2)C1=O (stereo not given)
Activity [1]: 80%
IC50 [1]: 251 µM
Activity [2]: 80%
IC50 [2]: 50.1 µM
